Reference: patent US9920010B2, “CXCR7 receptor modulators” (IDORSIA PHARMACEUTICALS LTD, priority 2013, dated 2018)

target: T1, CXCR7 (Homo sapiens, UniProt P25106); assay: PathHunter CHO-K1 CXCR7 b-arrestin recruitment assay (CXCR7 agonistic activity); assay type: cell-based; conditions: PathHunter CHO-K1 CXCR7 b-arrestin cell line
T1 construct: host or cells: CHO-K1 (PathHunter CHO-K1 CXCR7 b-arrestin cell line, stably transfected)
Protocol: The CXCl12 receptor and CXCR7 agonistic activities of the compounds of formula (I) are determined in accordance with the following experimental method.
The assay is using the PathHunter™ CHO-K1 CXCR7 b-arrestin cell line from DiscoverX. The system is based on the Enzyme Fragment Complementation Technology. Two complementing fragments of the b-galactosidase enzyme are expressed within stably transfected cells. The larger portion of b-gal, termed EA for Enzyme Acceptor, is fused to the C-terminus of b-arrestin 2. The smaller fragment, termed ProLink™ tag, is fused to CXCR7 at the C-terminus. Upon activation, b-arrestin is recruited which forces the interaction of ProLink and EA, allowing complementation of the two fragments of b-gal and the formation of a functional enzyme which is capable of hydrolysing the substrate and generating a chemiluminescent signal.
CHO-K1 CXCR7 b-arrestin cells are detached from culture dishes with a cell dissociation buffer (Invitrogen, #13151-014) and collected in growing medium (F12 HAMS 90% (v/v)/FCS 10% (v/v), Penicillin/streptomycin 1% (v/v)). 5000 cells per well (in 20 μl) are seeded in a 384 well plate (white-walled, clear bottom; BD Falcon #353274). The plate is incubated at 37° C./5% CO2 for 24 hours. Medium is then replaced by 20 μl OPTIMEM (Invitrogen #31985) for 3 to 4 hours. Test compounds are dissolved at 10 mM in DMSO and serially diluted in DMSO to 200× of the final concentration for dose response curves. Compounds are then diluted 1:33.3 in HBSS1×. 5 μl/well of HBSS1×/20 mM HEPES/0.2% BSA are added to the assay plate followed by addition of 5 μl/well of diluted compounds. CXCL12 (Peprotech #300-28A) may be used as a reference agonist. The plate is incubated for 90 minutes at 37° C. 12 μl of detection reagent (Path Hunter Detection Kit, DiscoveRx, #93-0001) is transferred to the assay plate and to the plate is incubated for 1 hour at room temperature. Luminescent signal is read in a microplate reader (FLUOstar Optima, bmg). The calculated EC50 values may fluctuate depending on the daily cellular assay performance. Fluctuations of this kind are known to those skilled in the art. Average EC50 values from several measurements are given as geometric mean values.

T1 sequence (P25106 whole entry): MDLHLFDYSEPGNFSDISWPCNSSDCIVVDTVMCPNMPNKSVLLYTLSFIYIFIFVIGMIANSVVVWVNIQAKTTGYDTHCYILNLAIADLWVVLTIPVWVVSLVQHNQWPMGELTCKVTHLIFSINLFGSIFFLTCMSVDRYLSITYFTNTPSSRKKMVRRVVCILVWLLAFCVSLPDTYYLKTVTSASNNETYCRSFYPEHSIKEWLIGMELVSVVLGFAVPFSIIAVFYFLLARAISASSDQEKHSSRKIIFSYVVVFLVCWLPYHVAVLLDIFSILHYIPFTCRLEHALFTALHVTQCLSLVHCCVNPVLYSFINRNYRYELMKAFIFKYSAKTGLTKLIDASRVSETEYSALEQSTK
T1 sequence (P32121 whole entry partner): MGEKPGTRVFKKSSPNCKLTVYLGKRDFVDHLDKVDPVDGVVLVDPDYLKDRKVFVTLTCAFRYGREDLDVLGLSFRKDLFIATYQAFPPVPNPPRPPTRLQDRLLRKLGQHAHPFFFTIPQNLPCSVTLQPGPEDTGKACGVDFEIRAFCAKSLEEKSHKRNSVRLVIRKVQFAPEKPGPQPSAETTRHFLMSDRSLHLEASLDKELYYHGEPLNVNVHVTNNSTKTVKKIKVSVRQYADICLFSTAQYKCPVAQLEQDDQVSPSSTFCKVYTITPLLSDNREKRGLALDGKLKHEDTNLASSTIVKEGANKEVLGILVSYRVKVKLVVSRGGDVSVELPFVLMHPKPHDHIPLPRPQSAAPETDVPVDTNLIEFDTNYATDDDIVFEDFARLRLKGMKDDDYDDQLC

Compound	EC50 [nM]
CN1CCN(C(=O)CNc2cccc3c2CCN(CC2CC2)C3)C(c2ccccc2)C1 (racemic) [Reference Example 104, rac-2-(2-Cyclopropylmethyl-1,2,3,4-tetrahydro-isoquinolin-5-ylamino)-1-(4-methyl-2-phenyl-piperazin-1-yl)-ethanone]	233
CCN1CCc2cccc(NCC(=O)N(Cc3ccccc3)C3CCNC3)c2C1 (racemic) [compound 378]	321
CNCCN(Cc1ncccc1C(F)(F)F)C(=O)CNc1cccc2c1CCN(C(=O)C1CCOC1)C2 (racemic) [compound 417]	15
CCN1CCc2cccc(NCC(=O)N(CCC3CCCN3C)Cc3ccccc3)c2C1 (racemic) [compound 508]	34
CCN1CCc2cccc(NCC(=O)N(Cc3ccccc3)C3CCN(C)C3)c2C1 (racemic) [compound 512]	56
CCN1CCc2cccc(NCC(=O)N(Cc3ccccc3C(F)(F)F)C(C)c3ccn(CC)n3)c2C1 (racemic) [compound 521]	269
CN(C)CCN(Cc1ncccc1Cl)C(=O)CNc1cccc2c1CN(C(=O)[C@H]1C[C@H]1F)CC2 (relative stereo) [compound 459]	59
CN(C)CCN(Cc1ncccc1Br)C(=O)CNc1cccc2c1CN(C(=O)[C@H]1C[C@H]1F)CC2 (relative stereo) [compound 460]	85
CC(C)(O)CN(Cc1ncccc1Br)C(=O)CNc1cccc2c1CN(C(=O)[C@H]1C[C@H]1F)CC2 (relative stereo) [compound 461]	420
CN(C)CCN(Cc1ccccc1)C(=O)Cc1cccc2c1CCN(CC1CC1)C2 [Example 1, N-Benzyl-2-(2-cyclopropylmethyl-1,2,3,4-tetrahydro-isoquinolin-5-yl)-N-(2-dimethylamino-ethyl)-acetamide]	79
CN(C)CCN(CCc1ccccc1)C(=O)Cc1cccc2c1CCN(CC1CC1)C2 [Example 2, 2-(2-Cyclopropylmethyl-1,2,3,4-tetrahydro-isoquinolin-5-yl)-N-(2-dimethylamino-ethyl)-N-phenethyl-acetamide]	144
O=C(Cc1cccc2c1CCN(CC1CC1)C2)N(CCN1CCCC1)Cc1ccccc1 [Example 3, N-Benzyl-2-(2-cyclopropylmethyl-1,2,3,4-tetrahydro-isoquinolin-5-yl)-N-(2-pyrrolidin-1-yl-ethyl)-acetamide]	42
CN(C)CCN(Cc1ncccc1C(F)(F)F)C(=O)Cc1cccc2c1CCN(CC1CC1)C2 [Example 5, 2-(2-Cyclopropylmethyl-1,2,3,4-tetrahydro-isoquinolin-5-yl)-N-(2-dimethylamino-ethyl)-N-(3-trifluoromethyl-pyridin-2-ylmethyl)-acetamide]	187
CN(C)CCN(Cc1ccccc1C(F)(F)F)C(=O)Cc1cccc2c1CCN(CC1CC1)C2 [Example 6, 2-(2-Cyclopropylmethyl-1,2,3,4-tetrahydro-isoquinolin-5-yl)-N-(2-dimethylamino-ethyl)-N-(2-trifluoromethyl-benzyl)-acetamide]	60
O=C(Cc1cccc2c1CCN(CC1CC1)C2)N(CCN1CCCC1)Cc1ccccc1C(F)(F)F [Example 7, 2-(2-Cyclopropylmethyl-1,2,3,4-tetrahydro-isoquinolin-5-yl)-N-(2-pyrrolidin-1-yl-ethyl)-N-(2-trifluoromethyl-benzyl)-acetamide]	32
CC(C)CCN(Cc1ccccc1)C(=O)CNc1cccc2c1CCN(C(=O)OC(C)(C)C)C2 [Example 9, 5-({[Benzyl-(3-methyl-butyl)-carbamoyl]-methyl}-amino)-3,4-dihydro-1H-isoquinoline-2-carboxylic acid tert-butyl ester]	451
CCC(=O)N1CCc2c(cccc2NCC(=O)N(CCC(C)C)Cc2ccccc2)C1 [Example 12, N-Benzyl-N-(3-methyl-butyl)-2-(2-propionyl-1,2,3,4-tetrahydro-isoquinolin-5-ylamino)-acetamide]	194
CCC(=O)N1CCc2c(cccc2NCC(=O)N(CCCN(C)C)Cc2ccccc2)C1 [Example 13, N-Benzyl-N-(3-dimethylamino-propyl)-2-(2-propionyl-1,2,3,4-tetrahydro-isoquinolin-5-ylamino)-acetamide]	37

The remaining lines, values ahead:

EC50 [nM]	Compound
1	CN1CCCC(N(Cc2ccccc2C(F)(F)F)C(=O)CNc2cccc3c2CCN(CC2CC2)C3)C1 (racemic) [compound 136]
9	O=C(CNc1cccc2c1CCN(CC1CC1)C2)N(Cc1ccccc1C(F)(F)F)C1CCNC1 (racemic) [compound 381]
8	CNCCN(Cc1ccccc1C(F)(F)F)C(=O)CNc1cccc2c1CCN(CC1CC1)C2C (racemic) [compound 382]
30	CNCCN(Cc1ccccc1C(F)(F)F)C(=O)CNc1cccc2c1CCN(C(=O)C1CCOC1)C2 (racemic) [compound 392]
5	O=C(CNc1cccc2c1CCN(CC1CC1)C2)N(Cc1ccccc1C(F)(F)F)CC1CCNC1 (racemic) [compound 441]
2	CN(CCN(Cc1ccccc1C(F)(F)F)C(=O)CNc1cccc2c1CCN(CC1CC1)C2)C1CCOC1 (racemic) [compound 448]
4	CC(CF)N(C)CCN(Cc1ccccc1C(F)(F)F)C(=O)CNc1cccc2c1CCN(CC1CC1)C2 (racemic) [compound 452]
9	CCN1CCc2cccc(NCC(=O)N(Cc3ccccc3C(F)(F)F)C3CCCN(C)C3)c2C1 (racemic) [compound 518]
140	CCN1CCc2cccc(NCC(=O)N(CCN(C)C)C(C)c3ccccc3C(F)(F)F)c2C1 (racemic) [compound 522]
1	CC1c2cccc(NCC(=O)N(CCN(C)C)Cc3ccccc3C(F)(F)F)c2CCN1CC1CC1 (single isomer, unassigned) [Example 211a, (S)- or (R)-2-((2-(Cyclopropylmethyl)-1-methyl-1,2,3,4-tetrahydroisoquinolin-5-yl)amino)-N-(2-(dimethylamino)ethyl)-N-(2-(trifluoromethyl)benzyl)acetamide]
6	CC1c2cccc(NCC(=O)N(CCN(C)C)Cc3ccccc3C(F)(F)F)c2CCN1CC1CC1 (single isomer, unassigned) [Example 211b, (R)- or (S)-2-((2-(Cyclopropylmethyl)-1-methyl-1,2,3,4-tetrahydroisoquinolin-5-yl)amino)-N-(2-(dimethylamino)ethyl)-N-(2-(trifluoromethyl)benzyl)acetamide]
6	CN(C)CCN(Cc1ccccc1C(F)(F)F)C(=O)CNc1cccc2c1CCN(C(=O)[C@H]1C[C@H]1F)C2 (single isomer, unassigned) [Example 363a, N-(2-Dimethylamino-ethyl)-2-[2-((1R*,2R*)-2-fluoro-cyclopropanecarbonyl)-1,2,3,4-tetrahydro-isoquinolin-5-ylamino]-N-(2-trifluoromethyl-benzyl)-acetamide]
5	CN(C)CCN(Cc1ccccc1C(F)(F)F)C(=O)CNc1cccc2c1CCN(C(=O)[C@@H]1C[C@@H]1F)C2 (single isomer, unassigned) [Example 363b, N-(2-Dimethylamino-ethyl)-2-[2-((1 S*,2S*)-2-fluoro-cyclopropanecarbonyl)-1,2,3,4-tetrahydro-isoquinolin-5-ylamino]-N-(2-trifluoromethyl-benzyl)-acetamide]
230	CN(C)CCN(Cc1ccccc1)C(=O)CNc1cccc2c1CCN(C(=O)OC(C)(C)C)C2 [Example 8, 5-({[Benzyl-(2-dimethylamino-ethyl)-carbamoyl]-methyl}-amino)-3,4-dihydro-1H-isoquinoline-2-carboxylic acid tert-butyl ester]
337	CN1CCC(N(Cc2ccccc2C(F)(F)F)C(=O)CNc2cccc3c2CCN(C(=O)OC(C)(C)C)C3)CC1 [Example 10, 5-({[(1-Methyl-piperidin-4-yl)-(2-trifluoromethyl-benzyl)-carbamoyl]-methyl}-amino)-3,4-dihydro-1H-isoquinoline-2-carboxylic acid tert-butyl ester]
53	CCC(=O)N1CCc2c(cccc2NCC(=O)N(CCN(C)C)Cc2cccc(C)c2)C1 [Example 14, N-(2-Dimethylamino-ethyl)-N-(3-methyl-benzyl)-2-(2-propionyl-1,2,3,4-tetrahydro-isoquinolin-5-ylamino)-acetamide]
15	CCC(=O)N1CCc2c(cccc2NCC(=O)N(CCN(C)C)Cc2ccccc2C)C1 [Example 15, N-(2-Dimethylamino-ethyl)-N-(2-methyl-benzyl)-2-(2-propionyl-1,2,3,4-tetrahydro-isoquinolin-5-ylamino)-acetamide]
